In ChEMBL document CHEMBL3351298, “Design, synthesis and evaluation of novel tacrine-(β-carboline) hybrids as multifunctional agents for the treatment of Alzheimer's disease” (Bioorg Med Chem, 2014):
Calls of active or inactive are those of the source. The calls are words filed in the database; no cut-off is given here.

Legend:
Cholinesterase = Cholinesterase (Equus caballus, UniProt P81908)
Description: Inhibition of equine serum BChE using S-butyrylthiocholine chloride as substrate incubated for 6 mins by spectrophotometric method

[1] = Retention time of the compound using CH3OH/H2O(0.1% Formic acid), 45% (v/v) of CH3OH gradient by HPLC analysis; type: physicochemical
[2] = target: Acetylcholinesterase (Electrophorus electricus) (UniProt O42275); assay: Mixed-type of inhibition in electric eel AChE by Lineweaver-Burk plot analysis
Sequence of Acetylcholinesterase (Electrophorus electricus) (O42275 24-633 limits assumed): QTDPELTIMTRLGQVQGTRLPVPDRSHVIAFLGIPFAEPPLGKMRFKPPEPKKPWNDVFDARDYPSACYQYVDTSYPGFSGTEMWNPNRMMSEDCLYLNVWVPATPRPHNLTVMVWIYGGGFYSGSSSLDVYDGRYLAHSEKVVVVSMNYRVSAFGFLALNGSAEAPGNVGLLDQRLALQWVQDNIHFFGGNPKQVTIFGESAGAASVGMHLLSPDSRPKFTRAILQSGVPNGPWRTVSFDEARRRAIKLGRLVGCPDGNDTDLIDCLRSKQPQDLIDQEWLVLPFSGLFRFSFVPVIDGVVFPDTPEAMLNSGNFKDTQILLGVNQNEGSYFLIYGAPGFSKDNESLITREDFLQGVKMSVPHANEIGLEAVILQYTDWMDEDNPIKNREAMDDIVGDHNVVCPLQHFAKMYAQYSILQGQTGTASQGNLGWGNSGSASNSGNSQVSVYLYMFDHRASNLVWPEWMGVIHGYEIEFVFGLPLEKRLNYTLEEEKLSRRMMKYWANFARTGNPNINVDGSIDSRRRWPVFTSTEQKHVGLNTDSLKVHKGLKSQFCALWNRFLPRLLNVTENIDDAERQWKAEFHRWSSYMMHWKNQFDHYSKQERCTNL

[3] = Neuroprotective activity against H2O2-induced oxidative damage in rat PC12 cells assessed as increase in cell viability at 10 uM after 24 hrs by MTT assay; type: functional, PC-12
[4] = Metal chelating activity of the compound assessed as Cu2+ complex formation at 25 uM by UV-vis spectrometry; type: physicochemical
Acetylcholinesterase [5] = target: Acetylcholinesterase (Homo sapiens, UniProt P22303)
Sequence of Acetylcholinesterase (Homo sapiens, UniProt P22303) (P22303 whole entry): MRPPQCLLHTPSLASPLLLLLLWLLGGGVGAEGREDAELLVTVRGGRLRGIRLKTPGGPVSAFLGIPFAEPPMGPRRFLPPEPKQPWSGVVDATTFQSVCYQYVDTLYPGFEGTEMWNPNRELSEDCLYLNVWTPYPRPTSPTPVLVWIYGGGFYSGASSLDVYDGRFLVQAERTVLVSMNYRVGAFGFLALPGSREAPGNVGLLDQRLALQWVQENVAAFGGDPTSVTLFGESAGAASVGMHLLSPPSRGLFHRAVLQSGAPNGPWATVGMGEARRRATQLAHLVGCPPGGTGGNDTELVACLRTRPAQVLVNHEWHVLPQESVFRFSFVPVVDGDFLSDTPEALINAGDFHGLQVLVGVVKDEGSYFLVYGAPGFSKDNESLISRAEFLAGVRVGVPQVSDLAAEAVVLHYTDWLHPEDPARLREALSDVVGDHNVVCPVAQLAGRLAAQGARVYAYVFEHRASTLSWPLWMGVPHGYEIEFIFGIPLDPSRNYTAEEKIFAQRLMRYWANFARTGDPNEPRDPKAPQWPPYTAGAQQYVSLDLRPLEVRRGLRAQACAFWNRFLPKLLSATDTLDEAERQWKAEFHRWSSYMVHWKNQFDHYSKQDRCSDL
Description: Inhibition of human AChE using acetylthiocholine iodide as substrate incubated for 6 mins by spectrophotometric method

in vitro = conditions: PAMPA
PC-12 = assay: Neuroprotective activity against H2O2-induced oxidative damage in rat PC12 cells assessed as increase in cell viability at 0.4 to 10 uM after 24 hrs by MTT assay; type: functional, cell-based
Acetylcholinesterase [6] = target: Acetylcholinesterase (Electrophorus electricus, UniProt O42275)
Sequence of Acetylcholinesterase (Electrophorus electricus, UniProt O42275) (O42275 whole entry): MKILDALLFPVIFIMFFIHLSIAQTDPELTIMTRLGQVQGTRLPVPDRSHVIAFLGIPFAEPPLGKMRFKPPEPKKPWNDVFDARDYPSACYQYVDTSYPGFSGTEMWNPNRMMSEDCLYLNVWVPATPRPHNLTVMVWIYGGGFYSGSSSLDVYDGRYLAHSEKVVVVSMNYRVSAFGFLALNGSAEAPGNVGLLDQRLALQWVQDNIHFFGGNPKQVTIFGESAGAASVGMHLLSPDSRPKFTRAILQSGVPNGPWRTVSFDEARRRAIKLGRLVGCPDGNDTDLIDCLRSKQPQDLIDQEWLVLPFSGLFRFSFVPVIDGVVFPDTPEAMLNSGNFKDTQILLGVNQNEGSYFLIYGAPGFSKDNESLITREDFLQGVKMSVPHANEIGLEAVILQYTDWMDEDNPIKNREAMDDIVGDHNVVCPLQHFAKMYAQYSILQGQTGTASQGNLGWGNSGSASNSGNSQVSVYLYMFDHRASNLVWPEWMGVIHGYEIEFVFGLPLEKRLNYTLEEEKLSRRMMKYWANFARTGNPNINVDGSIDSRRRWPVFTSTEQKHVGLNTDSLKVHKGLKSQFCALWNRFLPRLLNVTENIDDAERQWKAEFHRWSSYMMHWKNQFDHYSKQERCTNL
Description: Inhibition of electric eel AChE using acetylthiocholine iodide as substrate incubated for 6 mins by spectrophotometric method

[7] = target: Amyloid-beta precursor protein (Homo sapiens) (UniProt P05067); assay: Inhibition of amyloid beta (1 to 42) (unknown origin) self-induced aggregation at 20 uM after 46 to 48 hrs by thioflavin-T based fluorometric assay
Sequence of Amyloid-beta precursor protein (Homo sapiens) (P05067 whole entry): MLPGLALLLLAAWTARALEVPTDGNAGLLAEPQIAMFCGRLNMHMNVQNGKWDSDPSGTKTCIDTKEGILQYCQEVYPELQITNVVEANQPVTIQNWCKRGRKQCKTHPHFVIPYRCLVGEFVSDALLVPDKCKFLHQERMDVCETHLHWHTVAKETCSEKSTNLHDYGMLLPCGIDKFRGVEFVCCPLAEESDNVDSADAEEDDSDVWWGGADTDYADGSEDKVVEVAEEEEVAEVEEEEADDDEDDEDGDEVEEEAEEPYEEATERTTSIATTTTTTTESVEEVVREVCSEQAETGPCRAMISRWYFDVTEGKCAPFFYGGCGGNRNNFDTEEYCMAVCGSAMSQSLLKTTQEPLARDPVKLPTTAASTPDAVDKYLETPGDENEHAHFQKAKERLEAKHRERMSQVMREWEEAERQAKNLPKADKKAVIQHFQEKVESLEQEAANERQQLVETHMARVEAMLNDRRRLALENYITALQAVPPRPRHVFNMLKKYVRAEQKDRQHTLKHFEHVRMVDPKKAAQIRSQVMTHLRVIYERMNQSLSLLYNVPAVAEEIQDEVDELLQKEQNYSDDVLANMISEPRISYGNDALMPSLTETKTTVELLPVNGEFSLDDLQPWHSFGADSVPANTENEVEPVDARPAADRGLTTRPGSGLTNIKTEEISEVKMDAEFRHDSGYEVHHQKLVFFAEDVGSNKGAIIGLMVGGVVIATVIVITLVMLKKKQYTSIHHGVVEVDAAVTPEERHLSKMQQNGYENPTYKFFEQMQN

[8] = Retention time of the compound using CH3OH/H2O(0.1% Formic acid), 55% (v/v) of CH3OH gradient by HPLC analysis; type: physicochemical
[9] = Retention time of the compound using CH3OH/H2O(0.1% Formic acid), 70% (v/v) of CH3OH gradient by HPLC analysis; type: physicochemical
[10] = Retention time of the compound using CH3OH/H2O (0.1% Formic acid), 65% (v/v) of CH3OH gradient by HPLC analysis; type: physicochemical
[11] = Retention time of the compound using CH3OH/H2O(0.1% Formic acid), 75% (v/v) of CH3OH gradient by HPLC analysis; type: physicochemical
[12] = Retention time of the compound using CH3OH/H2O (0.1% Formic acid), 60% (v/v) of CH3OH gradient by HPLC analysis; type: physicochemical

Sequence of Cholinesterase (P81908 whole entry): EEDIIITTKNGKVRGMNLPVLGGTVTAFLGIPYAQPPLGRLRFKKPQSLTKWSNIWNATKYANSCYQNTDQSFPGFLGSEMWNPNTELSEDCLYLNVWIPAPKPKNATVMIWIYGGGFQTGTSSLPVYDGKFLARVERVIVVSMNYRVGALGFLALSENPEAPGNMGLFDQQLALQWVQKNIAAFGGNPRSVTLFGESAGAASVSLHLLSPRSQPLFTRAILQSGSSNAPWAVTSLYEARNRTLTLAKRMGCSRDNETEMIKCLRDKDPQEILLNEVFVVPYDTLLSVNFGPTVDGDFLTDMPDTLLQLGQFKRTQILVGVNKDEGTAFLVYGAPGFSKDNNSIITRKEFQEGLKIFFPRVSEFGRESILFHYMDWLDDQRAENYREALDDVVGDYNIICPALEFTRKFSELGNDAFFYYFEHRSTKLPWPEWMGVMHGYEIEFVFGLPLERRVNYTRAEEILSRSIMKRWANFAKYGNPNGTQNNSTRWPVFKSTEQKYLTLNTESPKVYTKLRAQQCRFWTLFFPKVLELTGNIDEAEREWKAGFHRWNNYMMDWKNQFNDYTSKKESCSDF

Row | Compound | IC50 (Cholinesterase) | IC50 (Acetylcholinesterase [5]) | Papp (in vitro) | IC50 (Acetylcholinesterase [6]) | inhibition [7] | other results
1 | O=C(NCCCCCCNc1c2c(nc3ccccc13)CCCC2)[C@@H]1Cc2c([nH]c3ccccc23)CN1 | 39.8 nM | 63.2 nM | 5.6 ×10⁻⁶ cm/s | 21.6 nM | 65.8% | Retention_time [1]: 7.932 min; inhibition [2]: Active; Activity [3]: 73.67%; Activity [4]: Active; Activity (PC-12): Active
2 | Cc1nc(C(=O)NCCNc2c3c(nc4ccccc24)CCCC3)cc2c1[nH]c1ccccc12 | 539 nM | – | – | 485 nM | 42.4% | Retention_time [8]: 10.74 min
3 | CN1C(C(=O)Nc2ccccn2)=C(O)c2ccccc2S1(=O)=O [PIROXICAM] | – | – | 1.2 ×10⁻⁶ cm/s | – | – | –
4 | COC(=O)c1cc2c(cn1)[nH]c1ccccc12 [BETA-CCM] | > 100000 nM | – | – | 63000 nM | 22.1% | –
5 | Clc1cccc(Cl)c1N=C1NCCN1 [CLONIDINE] | – | – | 3.8 ×10⁻⁶ cm/s | – | – | –
6 | CC1c2[nH]c3ccccc3c2C[C@@H](C(=O)NCCCCCCNc2c3c(nc4ccccc24)CCCC3)N1C(=O)OC(C)(C)C (stereo not given in full) | 22.3 nM | 526 nM | – | 389 nM | 42.3% | Retention_time [9]: 8.219 min
7 | Cc1nc(C(=O)NCCCCNc2c3c(nc4ccccc24)CCCC3)cc2c1[nH]c1ccccc12 | 158 nM | 325 nM | – | 268 nM | 39.3% | Retention_time [8]: 10.988 min
8 | CC(C)(C)OC(=O)N[C@@H](Cc1c[nH]c2ccccc12)C(=O)NCCCCCCNc1c2c(nc3ccccc13)CCCC2 | 4.3 nM | 116 nM | 5.52 ×10⁻⁶ cm/s | 67.3 nM | 62.1% | Retention_time [9]: 4.417 min
9 | O=C(NCCCCCCNc1c2c(nc3ccccc13)CCCC2)c1cc2c([nH]c3ccccc32)c(-c2ccccc2)n1 | 129 nM | 159 nM | – | 127 nM | 26.1% | Retention_time [10]: 23.485 min
10 | CC1N[C@H](C(=O)NCCCCCCNc2c3c(nc4ccccc24)CCCC3)Cc2c1[nH]c1ccccc21 (stereo not given in full) | 240 nM | 203 nM | – | 156 nM | 48.6% | –
11 | COc1ccc(-c2nc(C(=O)NCCCCCCNc3c4c(nc5ccccc35)CCCC4)cc3c2[nH]c2ccccc23)cc1 | 329 nM | 149 nM | – | 97.7 nM | 25.2% | Retention_time [11]: 5.664 min
12 | O=C(NCCCCCCNc1c2c(nc3ccccc13)CCCC2)c1cc2c([nH]c3ccccc32)c(-c2ccc(F)cc2)n1 | 205 nM | 306 nM | – | 230 nM | 29.7% | Retention_time [11]: 5.973 min
13 | NCCc1ccc(O)c(O)c1 [DOPAMINE] | – | – | 0.15 ×10⁻⁶ cm/s | – | – | –
14 | Cc1nc(C(=O)NCCCCCCCCNc2c3c(nc4ccccc24)CCCC3)cc2c1[nH]c1ccccc12 | 245 nM | 153 nM | – | 107 nM | 36.6% | Retention_time [9]: 7.963 min
15 | N[C@@H](Cc1c[nH]c2ccccc12)C(=O)NCCCCCCNc1c2c(nc3ccccc13)CCCC2 | 10.6 nM | 96.3 nM | 4.45 ×10⁻⁶ cm/s | 51.6 nM | 66.3% | Retention_time [1]: 5.426 min; Activity (PC-12): Active
16 | CCc1nc(C(=O)NCCCCCCNc2c3c(nc4ccccc24)CCCC3)cc2c1[nH]c1ccccc12 | 96.9 nM | 98.2 nM | 4.97 ×10⁻⁶ cm/s | 51.7 nM | 44.6% | Retention_time [10]: 10.991 min
17 | O=C(NCCCCCCNc1c2c(nc3ccccc13)CCCC2)c1cc2c(cn1)[nH]c1ccccc12 | 41.3 nM | 91.8 nM | 5.36 ×10⁻⁶ cm/s | 32.4 nM | 41.2% | Retention_time [12]: 15.899 min
18 | CC(=O)N[C@@H](Cc1c[nH]c2ccccc12)C(=O)NCCCCCCNc1c2c(nc3ccccc13)CCCC2 | 6.2 nM | 153 nM | – | 115 nM | 61.4% | Retention_time [12]: 4.642 min
19 | CC(=O)[C@H]1CC[C@H]2[C@@H]3CCC4=CC(=O)CC[C@]4(C)[C@H]3CC[C@]12C [PROGESTERONE] | – | – | 4.14 ×10⁻⁶ cm/s | – | – | –
20 | Cc1nc(C(=O)NCCCCCCCCCCNc2c3c(nc4ccccc24)CCCC3)cc2c1[nH]c1ccccc12 | 364 nM | – | – | 783 nM | 38.8% | Retention_time [11]: 7.918 min
21 | Cc1nc(C(=O)NCCCCCCNc2c3c(nc4ccccc24)CCCC3)cc2c1[nH]c1ccccc12 | 93.6 nM | 92.6 nM | – | 40.6 nM | 41.5% | Retention_time [12]: 13.685 min
22 | CC(C)(C)OC(=O)N1Cc2[nH]c3ccccc3c2C[C@H]1C(=O)NCCCCCCNc1c2c(nc3ccccc13)CCCC2 | 7.5 nM | 187 nM | 5.81 ×10⁻⁶ cm/s | 141 nM | 52.4% | Retention_time [12]: 17.683 min
